Several values for one entry are separate records, joined by “and”; a condition that tells them apart may be missing. Identical values can stand only once.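 The compound was tested at five concentrations on cells cultured in 96-well plates, with a 48-hour exposure period. GI50 marks 50% less growth. TGI denotes the concentration required for complete inhibition of growth.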
Assays:
Assay in all cases: NCI tumour cell line growth inhibition, 48 h
SF-268 CNS = system: SF-268 CNS
OVCAR-4 ovarian = system: OVCAR-4 ovarian
UACC-62 melanoma = system: UACC-62 melanoma
HCT-116 colon = system: HCT-116 colon
HCT-15 colon = system: HCT-15 colon
OVCAR-3 ovarian = system: OVCAR-3 ovarian
CAKI-1 renal = system: CAKI-1 renal
SK-MEL-2 melanoma = system: SK-MEL-2 melanoma
NCI/ADR-RES ovarian = system: NCI/ADR-RES ovarian
TK-10 renal = system: TK-10 renal

| Structure (SMILES) | GI50 (SF-268 CNS) | TGI (SF-268 CNS) | GI50 (OVCAR-4 ovarian) | TGI (OVCAR-4 ovarian) | GI50 (UACC-62 melanoma) | TGI (UACC-62 melanoma) | GI50 (HCT-116 colon) | TGI (HCT-116 colon) | GI50 (HCT-15 colon) | TGI (HCT-15 colon) | GI50 (OVCAR-3 ovarian) | TGI (OVCAR-3 ovarian) | GI50 (CAKI-1 renal) | TGI (CAKI-1 renal) | GI50 (SK-MEL-2 melanoma) | TGI (SK-MEL-2 melanoma) | GI50 (NCI/ADR-RES ovarian) | TGI (NCI/ADR-RES ovarian) | GI50 (TK-10 renal) | TGI (TK-10 renal) |
| --- | --- | --- | --- | --- | --- | --- | --- | --- | --- | --- | --- | --- | --- | --- | --- | --- | --- | --- | --- | --- |
| COc1ccc(-c2nc(NC(=O)CS(=O)(=O)c3ccc(F)cc3)sc2C)cc1 | 28.7 µM | > 100 µM | 31 µM | > 100 µM | 13.1 µM | 32.9 µM | 17.5 µM | 38.7 µM | 12.5 µM | > 100 µM | 15.7 µM | 39.9 µM | 24.2 µM | > 100 µM | 15.2 µM | 34.1 µM | 17.4 µM | > 100 µM | 28.9 µM | 81.2 µM |
| CCC/C=C/C=C/C(=O)OC1/C(=C/C(=O)OC)CC2CC(C(C)O)OC(=O)CC(O)CC3CC(OC(C)=O)C(C)(C)C(O)(CC4C/C(=C/C(=O)OC)CC(/C=C/C(C)(C)C1(O)O2)O4)O3 (stereo not drawn) | 6.18 µM and > 12.5 µM | 9.13 µM and 11 µM and > 12.5 µM | > 6.88 µM and 3.48 µM and > 12.5 µM | > 6.88 µM and 10.1 µM and > 12.5 µM | > 10.9 µM and 5.26 µM and > 12.5 µM | > 10.9 µM and 11 µM and > 12.5 µM | > 10.9 µM and 5.2 µM and > 12.5 µM | > 10.9 µM and 11 µM and > 12.5 µM | 5.15 µM and 10.8 µM and > 12.5 µM | 7.35 µM and 11 µM and > 12.5 µM | > 10.9 µM and 8.33 µM and > 12.5 µM | > 10.9 µM and 11 µM and > 12.5 µM | 2.79 µM and 4.05 µM and > 12.5 µM | 10.9 µM and 11 µM and > 12.5 µM | > 10.9 µM and 5.77 µM and > 12.5 µM | > 10.9 µM and 11 µM and > 12.5 µM | > 12.5 µM | > 12.5 µM | > 11 µM | > 12.5 µM |
| O=C(O)CCC(O)=C1S(=O)(=O)OCCOS1(=O)=O | – | > 100 µM | – | > 100 µM | – | > 100 µM | – | > 100 µM | – | > 100 µM | – | > 100 µM | – | > 100 µM | – | > 100 µM | – | > 100 µM | – | > 100 µM |
| O=C1/C(=C/c2ccc(F)cc2)COc2ccc(O)c(O)c21 | 2.51 µM | 9.27 µM | 2.77 µM | > 100 µM | 2.1 µM | 6.98 µM | 1.87 µM | 4.98 µM | 0.755 µM | 5.85 µM | 0.864 µM | 9.4 µM | 1.65 µM | 5.61 µM | 4.61 µM | 47.5 µM | 1.96 µM | 7.85 µM | 4.74 µM | > 100 µM |
| Cc1cccc(CNc2c3ccccc3nc3ccccc23)c1 | 3.06 µM | 11.8 µM | 1.74 µM | 5.59 µM | 1.61 µM | 3.48 µM | 0.927 µM | 4.4 µM | 1.83 µM | 4.59 µM | 2.29 µM | 5.92 µM | 1.61 µM | 5.03 µM | 1.94 µM | 4.14 µM | 1.85 µM | 5.97 µM | 2.83 µM | 12.2 µM |
| O=[N+]([O-])c1ccc(Sc2cccc[n+]2[O-])c2nonc12 | 5.27 µM | 21.1 µM | 3.61 µM | 13.6 µM | 4.58 µM | 22.6 µM | 1.4 µM | 12.5 µM | 3.03 µM | 14.7 µM | 1.07 µM | 2.48 µM | 4.85 µM | 15.4 µM | 13.5 µM | 36.3 µM | 5.73 µM | > 52.7 µM | 8.41 µM | 20.8 µM |
| N#CC1=C(N)NC(=O)C(C#N)C12Nc1ccccc1S2 (stereo not drawn) | > 100 µM | > 100 µM | > 100 µM | > 100 µM | 60.5 µM | > 100 µM | 59.4 µM | > 100 µM | > 100 µM | > 100 µM | 32.6 µM | > 100 µM | > 100 µM | > 100 µM | 40.7 µM | > 100 µM | 94.9 µM | > 100 µM | 38.9 µM | > 100 µM |
| O=C(c1ccc(Cl)cc1Cl)N1CCN(C(=O)c2ccc(Cl)cc2Cl)C1=S | 24.5 µM | 56.1 µM | 25.8 µM | 80.9 µM | 17.3 µM | 31.6 µM | 23.5 µM | 57.5 µM | 22.1 µM | 57.3 µM | 19.7 µM | 42.4 µM | 22.1 µM | 52.1 µM | 18.4 µM | 36.2 µM | 24.8 µM | 74.3 µM | 36.3 µM | > 100 µM |
| Nc1nc(N)nc(CCCCc2nc(N)nc(N)n2)n1 | – | > 100 µM | – | > 100 µM | – | > 100 µM | – | > 100 µM | – | > 100 µM | – | > 100 µM | – | > 100 µM | – | > 100 µM | – | > 100 µM | – | > 100 µM |
| O=C1c2ccccc2C(=O)N1c1ccc(Cc2ccc(N3C(=O)c4ccccc4C3=O)cc2)cc1 | – | > 100 µM | – | > 100 µM | – | > 100 µM | – | > 100 µM | – | > 100 µM | – | > 100 µM | – | > 100 µM | – | > 100 µM | – | > 100 µM | – | > 100 µM |
| CCc1nc(N)nc(N)c1C#CC(C)c1ccc(-c2ccncc2)cc1Cl (stereo not drawn) | 0.0287 µM and 0.0682 µM | 3.2 µM and 16.8 µM | – | 7.39 µM and 26.2 µM | < 0.005 µM and 0.0186 µM | 4.39 µM and 10.9 µM | < 0.005 µM | 2.77 µM and 13 µM | < 0.005 µM and 0.0127 µM | 5.24 µM and 11.9 µM | 0.0421 µM and 0.098 µM | 2.06 µM and 13.3 µM | 0.0259 µM | 5.07 µM | 0.579 µM and 1.75 µM | 3.33 µM and 17.6 µM | 0.0096 µM and 0.0366 µM | 5.11 µM and 9.3 µM | – | 4.46 µM and 6.39 µM |
| COC(=O)NC1(NC(=O)OC)NC(=O)c2ccccc2N1 | – | > 100 µM | – | > 100 µM | – | > 100 µM | – | > 100 µM | – | > 100 µM | – | > 100 µM | – | > 100 µM | – | > 100 µM | – | > 100 µM | – | > 100 µM |
| CN[C@@H](C)C(=O)N[C@H](C(=O)N1CCC[C@H]1c1nc(C(=O)c2ccc(F)cc2)cs1)C1CCCCC1 | 46.9 µM | > 100 µM | 0.51 µM | 13.9 µM | 16.6 µM | 35.2 µM | 27 µM | > 95.5 µM | 27.7 µM | > 95.9 µM | 25.5 µM | > 100 µM | 34.9 µM | > 100 µM | 2.93 µM | 23.8 µM | 21.2 µM | > 66 µM | 22.3 µM | 45.6 µM |
| O=C(CSSCC(=O)c1ccc(Cl)cc1)c1ccc(Cl)cc1 | 4.3 µM | 64.7 µM | 18.3 µM | 93.9 µM | 3.1 µM | 14.5 µM | 3.79 µM | 14.8 µM | 6.73 µM | 28.6 µM | 5.39 µM | 26.1 µM | 4.99 µM | 28.6 µM | 3.8 µM | 15.1 µM | 2.69 µM | 13.1 µM | 3.83 µM | 13.8 µM |
| Nc1c(C(=O)c2cccc(-c3cccnc3)c2)cnn1-c1ccc(F)cc1 | > 20.9 µM | > 25 µM | > 16.3 µM | > 25 µM | > 25 µM | > 25 µM | > 25 µM | > 25 µM | > 25 µM | > 25 µM | > 25 µM | > 25 µM | > 25 µM | > 25 µM | > 25 µM | > 25 µM | > 20.5 µM | > 25 µM | > 25 µM | > 25 µM |
| COc1ccc([N+](=O)[O-])c2c(NCCCN(C)C)c(C)c(C)nc12 | – | > 100 µM | – | 63.5 µM | – | > 100 µM | – | > 100 µM | – | > 100 µM | – | > 100 µM | – | > 100 µM | – | > 100 µM | – | > 100 µM | – | > 100 µM |

Source: PubChem BioAssay (NCI)
